Assay results: patent US10738040B2, “Compounds, compositions, and methods for increasing CFTR activity” (Proteostasis Therapeutics, Inc., priority 2014, dated 2020)

Legend:
ΔF508-CFTR [1] = target: T1, ΔF508-CFTR (Homo sapiens, UniProt P13569, DEL508-508); test: hBE equivalent current (Ieq) assay; format: cell-based; settings: compound at 10 uM and VX-809 at 1 uM, relative to VX-809 (1 uM); primary lung epithelial cells homozygous for ΔF508, 24 hours treatment; AUC of equivalent chloride current
T1 construct: Primary lung epithelial cells homozygous for the Cystic Fibrosis-causing ΔF508 mutation were differentiated; endogenous in cells; host or cells: primary human lung (bronchial) epithelial cells homozygous for ΔF508, differentiated at air-liquid interface
Experimental: ii. hBE Equivalent Current (Ieq) Assay
Primary lung epithelial cells homozygous for the Cystic Fibrosis-causing ΔF508 mutation were differentiated for a minimum of 4 weeks in an air-liquid interface on Costar 24 well HTS filter plates prior to the equivalent current (Ieq) measurements. Cells were apically mucus-washed for 30 minutes 24 h prior to treatment with compounds. The basolateral media was removed and replaced with media containing the compound of interest diluted to its final concentration from DMSO stocks. Treated cells were incubated at 37° C. and 5% CO2 for 24 hours. At the end of the treatment period, the media was changed to the Ieq experimental solution for 30 minutes before the experiment and plates are maintained in a CO2-free incubator during this period. The plates containing the cells were then placed in pre-warmed heating blocks at 36° ° C.±0.5 for 15 minutes before measurements are taken. The transepithelial voltage (VT) and conductance (GT) were measured using a custom 24 channel current clamp (TECC-24) with 24 well electrode manifold. The Ieq assay measurements were made following additions with standardized time periods: • 1. The baseline VT and GT values were measured for approximately 20 minutes. • 2. Benzamil was added to block ENaC for 15 minutes. • 3. Forskolin plus VX-770 (ivacaftor) were added to maximally activate ΔF508-CFTR for 27 minutes. • 4. Bumetanide was added to inhibit the NaK2Cl cotransporter and shut-off secretion of chloride.
The activity data captured was the area under the curve (AUC) for the traces of the equivalent chloride current. The AUC was collected from the time of the forskolin/VX-770 addition until the inhibition by bumetanide addition. Correction in response to compound treatment was scored as the increase in the AUC for compound-treated samples over that of vehicle-treated samples.

ΔF508-CFTR [2] = target: T1, ΔF508-CFTR; test: Ussing measurements (short-circuit current, CFTRinh-172-inhibitable); format: cell-based; settings: compound at 10 uM and VX-809 at 3 uM, relative to VX-809 (3 uM); hBEs homozygous for ΔF508, 24 hours treatment; CFTRinh-172-inhibitable current
Experimental: As discussed above, Ussing measurements can be used to measure CFTR activity. In this method, primary lung epithelial cells (hBEs) homozygous for the Cystic Fibrosis-causing ΔF508 mutation were differentiated for a minimum of 4 weeks in an air-liquid interface on SnapWell filter plates prior to the Ussing measurements. Cells were apically mucus-washed for 30 minutes prior to treatment with compounds. The basolateral media was removed and replaced with media containing the compound of interest diluted to its final concentration from DMSO stocks. Treated cells were incubated at 37° C. and 5% CO2 for 24 hours. At the end of the treatment period, the cells on filters were transferred to the Ussing chamber and equilibrated for 30 minutes. The short-circuit current was measured in voltage clamp-mode (Vhold=0 mV), and the entire assay was conducted at a temperature of 36° C.-36.5° C. Once the voltages stabilized, the chambers were clamped, and data was recorded by pulse readings every 5 seconds. Following baseline current stabilization, the following additions were applied and the changes in current and resistance of the cells was monitored: • 1. Benzamil to the apical chamber to inhibit ENaC sodium channel. • 2. Forskolin to both chambers to activate ΔF508-CFTR by phosphorylation. • 3. Genistein to both chambers to potentiate ΔF508-CFTR channel opening. • 4. CFTRinh-172 to the apical chamber to inhibit ΔF508-CFTR Cl— conductance. The inhibitable current (that current that is blocked by CFTRinh-172) is measured as the specific activity of the ΔF508-CFTR channel, and increases in response to compound in this activity over that observed in vehicle-treated samples are identified as the correction of ΔF508-CFTR function imparted by the compound tested.

T1 sequence (P13569 with tags, fused parts or gaps DEL508-508): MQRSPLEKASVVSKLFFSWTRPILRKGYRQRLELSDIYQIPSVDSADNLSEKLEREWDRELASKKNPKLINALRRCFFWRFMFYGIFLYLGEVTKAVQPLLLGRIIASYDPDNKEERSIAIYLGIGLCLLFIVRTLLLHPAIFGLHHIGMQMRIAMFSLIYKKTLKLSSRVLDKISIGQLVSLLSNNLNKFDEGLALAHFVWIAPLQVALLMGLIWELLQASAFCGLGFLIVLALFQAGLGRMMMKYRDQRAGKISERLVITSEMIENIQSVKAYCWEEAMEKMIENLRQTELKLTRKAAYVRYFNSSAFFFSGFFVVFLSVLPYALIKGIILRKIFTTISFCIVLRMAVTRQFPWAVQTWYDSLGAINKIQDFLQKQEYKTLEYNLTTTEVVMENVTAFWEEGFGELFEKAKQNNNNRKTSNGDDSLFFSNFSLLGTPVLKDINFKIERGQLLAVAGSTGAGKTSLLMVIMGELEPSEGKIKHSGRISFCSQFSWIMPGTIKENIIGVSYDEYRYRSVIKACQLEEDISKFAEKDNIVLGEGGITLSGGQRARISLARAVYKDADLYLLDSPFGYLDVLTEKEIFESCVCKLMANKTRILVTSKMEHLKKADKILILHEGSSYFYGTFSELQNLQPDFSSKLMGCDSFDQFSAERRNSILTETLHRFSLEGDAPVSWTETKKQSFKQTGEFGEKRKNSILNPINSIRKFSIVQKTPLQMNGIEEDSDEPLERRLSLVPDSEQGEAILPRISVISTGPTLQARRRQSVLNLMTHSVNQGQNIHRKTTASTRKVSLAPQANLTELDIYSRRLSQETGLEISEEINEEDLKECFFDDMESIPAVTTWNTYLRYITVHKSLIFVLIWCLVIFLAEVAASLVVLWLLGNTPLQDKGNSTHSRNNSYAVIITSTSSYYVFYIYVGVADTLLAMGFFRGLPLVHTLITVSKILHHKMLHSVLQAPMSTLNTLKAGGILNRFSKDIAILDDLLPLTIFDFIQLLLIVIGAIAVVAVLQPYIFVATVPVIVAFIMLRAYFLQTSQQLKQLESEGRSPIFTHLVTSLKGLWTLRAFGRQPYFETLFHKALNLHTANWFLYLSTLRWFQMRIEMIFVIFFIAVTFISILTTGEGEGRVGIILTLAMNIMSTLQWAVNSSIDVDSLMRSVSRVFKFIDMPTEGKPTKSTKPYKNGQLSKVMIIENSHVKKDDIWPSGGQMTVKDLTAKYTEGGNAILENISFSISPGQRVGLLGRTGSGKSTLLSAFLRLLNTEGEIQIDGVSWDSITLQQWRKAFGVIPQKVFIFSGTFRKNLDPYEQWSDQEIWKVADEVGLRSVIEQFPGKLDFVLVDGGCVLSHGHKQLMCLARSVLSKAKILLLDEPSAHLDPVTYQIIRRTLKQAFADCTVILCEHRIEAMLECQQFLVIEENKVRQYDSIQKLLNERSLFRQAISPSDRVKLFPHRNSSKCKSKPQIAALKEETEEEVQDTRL

Row | Structure (SMILES) | Ieq (% VX-809) (ΔF508-CFTR [1]) | Ussing (% VX-809) (ΔF508-CFTR [2])
1 | C[C@H](O)c1nnc([C@H]2C[C@@H](NC(=O)c3cc(-c4ccccc4)on3)C2)o1 | ** (activity ≥200% of VX-809 (1 uM) with compound at 10 uM and VX-809 at 1 uM) | ## (activity ≥200% of VX-809 (3 uM) with compound at 10 uM and VX-809 at 3 uM)
2 | CC(C)O[C@H](C)c1nnc([C@H]2C[C@H](NC(=O)c3cc(-c4ccccc4)on3)C2)o1 | – | ## (activity ≥200% of VX-809 (3 uM) with compound at 10 uM and VX-809 at 3 uM)
3 | O=C(NC1CCC(n2cc(CO)nn2)C1)c1cc(-c2ccccc2)on1 (stereo not drawn) | – | # (activity 100-200% of VX-809 (3 uM) with compound at 10 uM and VX-809 at 3 uM)
4 | O=C(NC1CC(c2nnc(CO)o2)C1)c1cc(-c2ccccc2)on1 (stereo not drawn) | – | ## (activity ≥200% of VX-809 (3 uM) with compound at 10 uM and VX-809 at 3 uM)
5 | O=C(NC1CCC(n2nncc2CO)CC1)c1cc(-c2ccccc2)on1 (stereo not drawn) | – | # (activity 100-200% of VX-809 (3 uM) with compound at 10 uM and VX-809 at 3 uM)
6 | O=C(N[C@H]1C[C@H](Cc2nnc(CO)s2)C1)c1cc(-c2ccccc2)on1 | – | ## (activity ≥200% of VX-809 (3 uM) with compound at 10 uM and VX-809 at 3 uM)
7 | C[C@@H](O)c1nnc(C2CC(NC(=O)c3cc(-c4ccc(F)cc4)on3)C2)o1 (stereo partly drawn) | – | ## (activity ≥200% of VX-809 (3 uM) with compound at 10 uM and VX-809 at 3 uM)
8 | C[C@@H](O)c1cnnn1[C@H]1C[C@@H](NC(=O)c2cc(-c3ccccc3)on2)C1 | – | ## (activity ≥200% of VX-809 (3 uM) with compound at 10 uM and VX-809 at 3 uM)
9 | O=C(NC1CCC(c2nnc(CO)o2)C1)c1cc(-c2ccccc2)on1 (stereo not drawn) | – | # (activity 100-200% of VX-809 (3 uM) with compound at 10 uM and VX-809 at 3 uM)
10 | CCCCNC(=O)OCc1cn([C@H]2C[C@H](NC(=O)c3cc(-c4ccccc4)on3)C2)nn1 | – | ## (activity ≥200% of VX-809 (3 uM) with compound at 10 uM and VX-809 at 3 uM)
11 | CS(=O)(=O)NC[C@H]1C[C@@H](NC(=O)c2cc(-c3ccccc3)on2)C1 | * (activity 100-200% of VX-809 (1 uM) with compound at 10 uM and VX-809 at 1 uM) | –
12 | C[C@@H](O)c1nnc([C@H]2C[C@@H](NC(=O)c3cc(-c4cccc(O)c4)on3)C2)o1 | * (activity 100-200% of VX-809 (1 uM) with compound at 10 uM and VX-809 at 1 uM) | –
13 | C[C@H](O)c1cn([C@H]2C[C@H](NC(=O)c3cc(-c4ccccc4)on3)C2)nn1 | ** (activity ≥200% of VX-809 (1 uM) with compound at 10 uM and VX-809 at 1 uM) | –
14 | C[C@@H](O)c1noc([C@H]2C[C@@H](NC(=O)c3cc(-c4ccccc4)on3)C2)n1 | * (activity 100-200% of VX-809 (1 uM) with compound at 10 uM and VX-809 at 1 uM) | –
15 | C[C@@H](O)c1nnc([C@H]2C[C@@H](NC(=O)c3cc(-c4ccc(O)c(O)c4)on3)C2)o1 | * (activity 100-200% of VX-809 (1 uM) with compound at 10 uM and VX-809 at 1 uM) | –
16 | C[C@@H](OC(=O)c1ccccc1)c1nnc([C@H]2C[C@H](NC(=O)c3cc(-c4ccccc4)on3)C2)o1 | * (activity 100-200% of VX-809 (1 uM) with compound at 10 uM and VX-809 at 1 uM) | –
17 | O=C(N[C@H]1C[C@H](c2nnc(C3CCC3)o2)C1)c1cc(-c2ccccc2)on1 | ** (activity ≥200% of VX-809 (1 uM) with compound at 10 uM and VX-809 at 1 uM) | –
18 | O=C(N[C@H]1C[C@H](n2ccnc2)C1)c1cc(-c2ccccc2)on1 | – | # (activity 100-200% of VX-809 (3 uM) with compound at 10 uM and VX-809 at 3 uM)
19 | O=C(N[C@H]1C[C@H](CCO)C1)c1cc(-c2ccccc2)on1 | ** (activity ≥200% of VX-809 (1 uM) with compound at 10 uM and VX-809 at 1 uM) | –

Row | Structure (SMILES) | Ieq (% VX-809) (ΔF508-CFTR [1]) | Ussing (% VX-809) (ΔF508-CFTR [2])
20 | O=C(N[C@H]1C[C@H](n2ccc(CO)n2)C1)c1cc(-c2ccccc2)on1 | ** (activity ≥200% of VX-809 (1 uM) with compound at 10 uM and VX-809 at 1 uM) | –
21 | O=C(N[C@H]1C[C@H](n2cc(CO)cn2)C1)c1cc(-c2ccccc2)on1 | * (activity 100-200% of VX-809 (1 uM) with compound at 10 uM and VX-809 at 1 uM) | –
22 | O=C(NC1CC(n2cc(CO)cn2)C1)c1cc(-c2ccccc2)on1 (stereo not drawn) | ** (activity ≥200% of VX-809 (1 uM) with compound at 10 uM and VX-809 at 1 uM) | –
23 | C[C@H](O)c1cnn([C@H]2C[C@H](NC(=O)c3cc(-c4ccccc4)on3)C2)c1 | ** (activity ≥200% of VX-809 (1 uM) with compound at 10 uM and VX-809 at 1 uM) | –
24 | C[C@@H](O)c1nnc(C[C@H]2C[C@@H](NC(=O)c3cc(-c4ccccc4)on3)C2)s1 | ** (activity ≥200% of VX-809 (1 uM) with compound at 10 uM and VX-809 at 1 uM) | –
25 | C[C@@H](O)c1nc([C@H]2C[C@@H](NC(=O)c3cc(-c4ccccc4)on3)C2)no1 | * (activity 100-200% of VX-809 (1 uM) with compound at 10 uM and VX-809 at 1 uM) | –
26 | O=C(N[C@H]1C[C@H](c2nnc(C3COC3)o2)C1)c1cc(-c2ccccc2)on1 | – | ## (activity ≥200% of VX-809 (3 uM) with compound at 10 uM and VX-809 at 3 uM)
27 | O=C(NC1CCC(n2nncc2CO)C1)c1cc(-c2ccccc2)on1 (stereo not drawn) | – | ## (activity ≥200% of VX-809 (3 uM) with compound at 10 uM and VX-809 at 3 uM)
28 | O=C(N[C@H]1C[C@H](c2nnc(C3CS(=O)(=O)C3)o2)C1)c1cc(-c2ccccc2)on1 | – | ## (activity ≥200% of VX-809 (3 uM) with compound at 10 uM and VX-809 at 3 uM)
29 | C[C@H](O)c1nnc(C[C@H]2C[C@@H](NC(=O)c3cc(-c4ccccc4)on3)C2)s1 | ** (activity ≥200% of VX-809 (1 uM) with compound at 10 uM and VX-809 at 1 uM) | –
30 | O=C(NC1CCC(n2cc(CO)nn2)CC1)c1cc(-c2ccccc2)on1 (stereo not drawn) | – | # (activity 100-200% of VX-809 (3 uM) with compound at 10 uM and VX-809 at 3 uM)
31 | C[C@H](O)c1ccn([C@H]2C[C@H](NC(=O)c3cc(-c4ccccc4)on3)C2)n1 | ** (activity ≥200% of VX-809 (1 uM) with compound at 10 uM and VX-809 at 1 uM) | –
32 | C[C@@H](O)c1cn([C@H]2C[C@@H](NC(=O)c3cc(-c4ccccc4)on3)C2)nn1 | – | ## (activity ≥200% of VX-809 (3 uM) with compound at 10 uM and VX-809 at 3 uM)
33 | O=C(N[C@H]1C[C@@H](c2nc(CO)no2)C1)c1cc(-c2ccccc2)on1 | ** (activity ≥200% of VX-809 (1 uM) with compound at 10 uM and VX-809 at 1 uM) | –
34 | O=C(N[C@H]1C[C@@H](CCO)C1)c1cc(-c2ccccc2)on1 | ** (activity ≥200% of VX-809 (1 uM) with compound at 10 uM and VX-809 at 1 uM) | –
35 | C[C@@H](O)c1nnc([C@H]2C[C@@H](NC(=O)c3cc(-c4ccc(O)cc4)on3)C2)o1 | * (activity 100-200% of VX-809 (1 uM) with compound at 10 uM and VX-809 at 1 uM) | –
36 | CN1CC(c2nnc([C@H]3C[C@H](NC(=O)c4cc(-c5ccccc5)on4)C3)o2)C1 | – | ## (activity ≥200% of VX-809 (3 uM) with compound at 10 uM and VX-809 at 3 uM)
37 | O=C(N[C@H]1C[C@@H](c2nnc(CO)s2)C1)c1cc(-c2ccccc2)on1 | – | ## (activity ≥200% of VX-809 (3 uM) with compound at 10 uM and VX-809 at 3 uM)
38 | O=C(N[C@H]1C[C@@H](c2nnc(CO)o2)C1)c1cc(-c2ccccc2)on1 | ** (activity ≥200% of VX-809 (1 uM) with compound at 10 uM and VX-809 at 1 uM) | –
